Laboratory results published in patent publication US5567692A, “9-[(substituted glycyl) amido)]-6-demethyl-6-deoxytetracyclines” (priority 1995, dated 1996).
Where a name gives a salt, the structure may show the parent alone. Read-outs that look alike come from different tables or passages of the source.

Tests used:
S. aureus ATCC 29213 = experiment: MIC, agar dilution; type: cell-based; settings: Staphylococcus aureus, ATCC29213, 18 h, S. aureus ATCC 29213
E. coli UBMS 89-1 Tet M = experiment: microbe, parasite or virus in culture; type: cell-based; settings: Escherichia coli, UBMS891TETM, 18 h
S. aureus IVES 2943 = experiment: MIC, agar dilution; type: cell-based; settings: Staphylococcus aureus, IVES2943, 18 h
[1] = test system: S. aureus UBMS 88-5 Tet M; experiment: microbe, parasite or virus in culture; type: cell-based; settings: Staphylococcus aureus, UBMS885TETM, 18 h
[2] = test system: Ps. aeruginosa ATCC 27853; experiment: MIC, agar dilution; type: cell-based; settings: Pseudomonas aeruginosa, ATCC27853, 18 h
E. coli UBMS 90-5 = experiment: microbe, parasite or virus in culture; type: cell-based; settings: Escherichia coli, UBMS905, 18 h, E. coli UBMS 90-5; read-out: MIC
E. faecalis ATCC 29212 = experiment: MIC, agar dilution; type: cell-based; settings: Enterococcus faecalis, ATCC29212, 18 h
[3] = test system: S. aureus UBMS 90-2 Tet M; experiment: microbe, parasite or virus in culture; type: cell-based; settings: Staphylococcus aureus, UBMS902TETM, 18 h
E. coli ATCC 25922 = experiment: MIC, agar dilution; type: cell-based; settings: Escherichia coli, ATCC25922, 18 h
E. coli BAJ9003 IMP MUT = experiment: microbe, parasite or virus in culture; type: cell-based; settings: Escherichia coli, BAJ9003IMPMUT, 18 h
S. aureus NEMC 8769 = experiment: MIC, agar dilution; type: cell-based; settings: Staphylococcus aureus, NEMC8769, 18 h
[4] = test system: S. aureus UBMS 90-1 Tet M; experiment: microbe, parasite or virus in culture; type: cell-based; settings: Staphylococcus aureus, UBMS901TETM, 18 h
[5] = test system: S. aureus UBMS 88-7 Tet K; experiment: microbe, parasite or virus in culture; type: cell-based; settings: Staphylococcus aureus, UBMS887TETK, 18 h
E. coli J2175 = experiment: MIC, agar dilution; type: cell-based; settings: Escherichia coli, 18 h, read-out: MIC
E. coli #311 (MP) = experiment: MIC, agar dilution; type: cell-based; settings: Escherichia coli, 18 h
Enterococcus 12201 = experiment: MIC, agar dilution; type: cell-based; settings: Enterococcus, 12201, 18 h
S. aureus SMITH (MP) = experiment: MIC, agar dilution; type: cell-based; settings: Staphylococcus aureus, 18 h; S. aureus SMITH (MP); read-out: MIC
E. coli UBMS 88-1 Tet B = experiment: microbe, parasite or virus in culture; type: cell-based; settings: Escherichia coli, UBMS881TETB, 18 h
S. aureus UBMS 88-4 = experiment: MIC, agar dilution; type: cell-based; settings: Staphylococcus aureus, UBMS884, 18 h
S. aureus UBMS 90-3 = experiment: MIC, agar dilution; type: cell-based; settings: Staphylococcus aureus, UBMS903, 18 h
E. coli J3272 Tet C = experiment: microbe, parasite or virus in culture; type: cell-based; settings: Escherichia coli, J3272TETC, 18 h
[6] = test system: E. coli UBMS 89-2 Tet sens.; experiment: MIC, agar dilution; type: cell-based; settings: Escherichia coli, 18 h
[7] = test system: S. hemolyticus AVHAH 88-3; experiment: MIC, agar dilution; type: cell-based; settings: Streptococcus pyogenes, AVHAH883, 18 h
S. aureus IVES 1983 = experiment: MIC, agar dilution; type: cell-based; settings: Staphylococcus aureus, IVES1983, 18 h
E. coli PRP1 Tet A = experiment: microbe, parasite or virus in culture; type: cell-based; settings: Escherichia coli, PRP1TETA, 18 h
S. marcescens FPOR 8733 = experiment: MIC, agar dilution; type: cell-based; settings: Serratia marcescens, FPOR8733, 18 h, read-out: MIC
E. coli UBMS 90-4 Tet M = experiment: microbe, parasite or virus in culture; type: cell-based; settings: Escherichia coli, UBMS904TETM, 18 h
[8] = test system: X. maltophilia NEMC 87210; experiment: MIC, agar dilution; type: cell-based; settings: Stenotrophomonas maltophilia, NEMC87210, 18 h
[9] = test system: E. coli MC 4100 Tet sens.; experiment: MIC, agar dilution; type: cell-based; settings: Escherichia coli, 18 h
[10] = test system: Staphylococcus aureus strain Smith (tetracycline sensitive); experiment: Acute lethal infection in mice, S. aureus Smith; type: in vivo; settings: for ED50: Staphylococcus aureus, 168 h, mice, S. aureus Smith (Sens), 7 day survival, read-out: ED50
S. aureus ROSE (MP) = experiment: MIC, agar dilution; type: cell-based; settings: Staphylococcus aureus, 18 h
E. coli J3272 Tet D = experiment: microbe, parasite or virus in culture; type: cell-based; settings: Escherichia coli, J3272TETD, 18 h
[11] = test system: E. coli MC 4100 TNIOC Tet B; experiment: microbe, parasite or virus in culture; type: cell-based; settings: Escherichia coli, 18 h
[12] = E. faecalis ATCC 29212, read-out: MIC
[13] = Enterococcus 12201, read-out: MIC

Row | SMILES | MIC (E. coli UBMS 89-1 Tet M) | MIC [1] | MIC (E. coli UBMS 90-5) | MIC (E. faecalis ATCC 29212; [12]) | MIC [3] | MIC (E. coli BAJ9003 IMP MUT) | MIC (S. aureus NEMC 8769) | MIC [4] | MIC [5] | MIC (E. coli J2175) | MIC (S. aureus SMITH (MP)) | MIC (E. coli UBMS 88-1 Tet B) | MIC (S. aureus UBMS 88-4) | MIC (E. coli J3272 Tet C) | MIC [6] | MIC (S. marcescens FPOR 8733) | MIC (E. coli UBMS 90-4 Tet M) | MIC [8] | MIC [9] | MIC (E. coli J3272 Tet D) | other results
1 | CCCNCC(=O)Nc1ccc2c(c1O)C(=O)C1=C(O)[C@]3(O)C(=O)C(C(N)=O)=C(O)[C@@H](N(C)C)C3CC1C2 (stereo partly drawn) [C, [4S-(4alpha,12aalpha)]-4-(Dimethylamino)-1,4,4a,5,5a,6,11,12a-octahydro-3,10,12,12a-tetrahydroxy-1,11-dioxo-9-[[(propylamino)acetyl]amino]-2-naphthacenecarboxamide dihydrochloride] | 0.25 µg/mL | 0.5 µg/mL | 0.25 µg/mL | 0.12 µg/mL | 0.25 µg/mL | 0.06 µg/mL | 0.06 µg/mL | 0.25 µg/mL | 2 µg/mL | 0.25 µg/mL | 0.12 µg/mL | 0.5 µg/mL | 0.25 µg/mL | 0.5 µg/mL | 0.25 µg/mL | 4 µg/mL | 0.25 µg/mL | 4 µg/mL | 0.12 µg/mL | 0.12 µg/mL | MIC (S. aureus ATCC 29213; read-out: MIC): 0.25 µg/mL; MIC (S. aureus IVES 2943; S. aureus IVES 2943, read-out: MIC): 4 µg/mL; MIC ([2]; Ps. aeruginosa ATCC 27853, read-out: MIC): 16 µg/mL; MIC (E. coli ATCC 25922): 0.12 µg/mL; MIC (E. coli #311 (MP); E. coli #311 (MP), read-out: MIC): 0.5 µg/mL; MIC (Enterococcus 12201): 0.25 µg/mL; MIC (S. aureus UBMS 90-3): 0.06 µg/mL; MIC ([7]; S. hemolyticus AVHAH 88-3, read-out: MIC): 0.5 µg/mL; MIC (S. aureus IVES 1983; S. aureus IVES 1983, read-out: MIC): 4 µg/mL; MIC (E. coli PRP1 Tet A): 1 µg/mL; ED50 ([10]; iv, Intraveneous): 1 to 2 mg/kg; ED50 ([10]; po, Oral): > 16 mg/kg; in vivo activity (in words) ([10]; tested intravenously against the minocycline sensitive organism S. aureus Smith): very good in vivo activity; MIC (S. aureus ROSE (MP); read-out: MIC): 16 µg/mL
2 | CCN(CC)CC(=O)Nc1ccc2c(c1O)C(=O)C1=C(O)[C@]3(O)C(=O)C(C(N)=O)=C(O)[C@@H](N(C)C)C3CC1C2 (stereo partly drawn) [O, [4S-(4alpha,12aalpha)]-9-[[(Diethylamino)acetyl]amino]-4-(dimethylamino)-1,4,4a,5,5a,6,11,12a-octahydro-3,10,12,12a-tetrahydroxy-1,11-dioxo-2-naphthacenecarboxamide dihydrochloride] | 0.5 µg/mL | 0.5 µg/mL | 1 µg/mL | 0.25 µg/mL | 0.5 µg/mL | 0.12 µg/mL | 1 µg/mL | 0.5 µg/mL | 0.5 µg/mL | 1 µg/mL | 0.25 µg/mL | 1 µg/mL | 0.5 µg/mL | 1 µg/mL | 1 µg/mL | 8 µg/mL | 0.5 µg/mL | 1 µg/mL | 0.5 µg/mL | 0.5 µg/mL | MIC (S. aureus ATCC 29213): 0.5 µg/mL; MIC (S. aureus IVES 2943): 1 µg/mL; MIC [2]: 32 µg/mL; MIC (E. coli ATCC 25922; read-out: MIC): 0.5 µg/mL; MIC (E. coli #311 (MP)): 1 µg/mL; MIC (Enterococcus 12201; [13]): 0.25 µg/mL; MIC [11]: 1 µg/mL; MIC (S. aureus UBMS 90-3; S. aureus UBMS 90-3, read-out: MIC): 0.25 µg/mL; MIC [7]: 2 µg/mL; MIC (S. aureus IVES 1983): 0.5 µg/mL; MIC (S. aureus ROSE (MP)): 2 µg/mL
3 | CCNCC(=O)Nc1ccc2c(c1O)C(=O)C1=C(O)[C@]3(O)C(=O)C(C(N)=O)=C(O)[C@@H](N(C)C)C3CC1C2 (stereo partly drawn) [E, [4S-(4alpha,12aalpha)]-4-(Dimethylamino)-9-[[(ethylamino)acetyl]amino]-1,4,4a,5,5a,6,11,12a-octahydro-3,10,12,12a-tetrahydroxy-1,11-dioxo-2-naphthacenecarboxamide dihydrochloride] | 0.25 µg/mL | 0.5 µg/mL | 0.5 µg/mL |  |  | 0.12 µg/mL | 0.12 µg/mL | 0.5 µg/mL | 8 µg/mL | 0.5 µg/mL | 0.25 µg/mL | 0.5 µg/mL | 0.5 µg/mL | 1 µg/mL | 0.5 µg/mL | 4 µg/mL | 0.25 µg/mL | 8 µg/mL | 0.25 µg/mL | 0.25 µg/mL | MIC (S. aureus ATCC 29213): 0.5 µg/mL; MIC (S. aureus IVES 2943): 16 µg/mL; MIC [2]: 16 µg/mL; MIC (E. faecalis ATCC 29212): 0.25 µg/mL; MIC ([3]; S. aureus UBMS 90-2 Tet M): 0.12 µg/mL; MIC (E. coli ATCC 25922; read-out: MIC): 0.25 µg/mL; MIC (E. coli #311 (MP)): 0.5 µg/mL; MIC (Enterococcus 12201; [13]): 0.25 µg/mL; MIC [11]: 1 µg/mL; MIC (S. aureus UBMS 90-3; S. aureus UBMS 90-3): 0.12 µg/mL; MIC [7]: 1 µg/mL; MIC (S. aureus IVES 1983): 8 µg/mL; MIC (E. coli PRP1 Tet A): 2 µg/mL; MIC (S. aureus ROSE (MP)): > 32 µg/mL
